Data: paper PMC9322122, “Development of (4-Phenylamino)quinazoline Alkylthiourea Derivatives as Novel NF-κB Inhibitors” (Pharmaceuticals, 2022)
Read-outs that look alike come from different tables or passages of the source. Blank lines part the entries; values can stand above or below the compound they belong to.

Key:
NF-κB p65 subunit = tested on: NF-κB p65 subunit; design: method as in PMID 28448872; conditions: covalent modification of the p65 subunit; read-out: IC50, interfering with the binding of NF-κB to its DNA recognition site; cited from earlier work
IL-1β production = conditions: THP-1 macrophage model cell line; read-out: IC50 for suppression of IL-1β production; cited from earlier work
IKKα = conditions: read-out: cell-free IC50 IKKα; cited from earlier work
TNFα = conditions: cited from earlier work
IKKβ = conditions: read-out: cell-free IC50 IKKβ; cited from earlier work
TNFα production [1] = conditions: THP-1 macrophage model cell line; read-out: IC50 for suppression of TNFα production; cited from earlier work
NF-κB [2] = tested on: NF-κB; design: method as in PMID 28291344; conditions: cell-based activity reporter assay; cited from earlier work
EGFR kinase = molecular target: EGFR kinase; design: method as in PMID 28291344; conditions: cell-free kinase assay at 100 µM ATP; cited from earlier work
IKKα/β = tested on: IKKα/β; design: method as in PMID 10768472; conditions: read-out: IC50, targeting IKKα/β; cited from earlier work
TNFα production [3] = assay: TNFα production in LPS-activated dTHP-1 cells (ELISA); format: cell-based; conditions: Homo sapiens; for IC50: LPS-activated dTHP-1 cells, 24 h; for inhibition at 7.5 µM / inhibition at 15 µM: LPS 100 ng/mL for 24 h, dTHP-1 cells; for inhibition at 7.5 µM: read-out: TNFα Production Inh % (7.5 μM); for inhibition at 15 µM: read-out: TNFα Production Inh % (15 μM)
Experimental: (§1) The HEK-293 (ATCC Cat# CRL-1573, RRID:CVCL_0045) and human monocytic THP−1 cells (ATCC Cat# TIB-202, RRID:CVCL_0006) were, respectively, cultured in DMEM and RPMI 1640 media supplemented with 10% fetal bovine serum, 2 mM L-glutamine, and 1× Antibiotic-Antimycotic at 37 °C in a humidified incubator with 5% CO2. THP−1 cells were differentiated by 100 nM phorbol-12-myristate-13-acetate (PMA) for 4 h and then rested for 44 h as dTHP−1 cells.
(§2) The dTHP−1 cells were treated with indicated compounds for 3 h and then activated with or without 100 ng/mL lipopolysaccharide (LPS; E. coli 0111:B4) for another 24 h. The levels of human IL-6 and TNFα in supernatants were measured by DuoSet® ELISA Development System (R&D systems, Minneapolis, MN, USA) according to the manufacturer’s protocol.

IL-6 production = IL-6 production in LPS-activated dTHP-1 cells (ELISA); format: cell-based, human; conditions: for IC50 / inhibition at 7.5 µM / inhibition at 15 µM: Homo sapiens; for IC50: LPS-activated dTHP-1 cells, 24 h; for inhibition at 7.5 µM: read-out: IL-6 Production Inh % (7.5 μM); for inhibition at 15 µM: read-out: IL-6 Production Inh % (15 μM)
Experimental: as §1, §2

NF-κB [4] = assay: NF-κB luciferase reporter assay; format: cell-based; conditions: Homo sapiens, NF-κB-luciferase-transfected HEK293 cells, TNFα 50 ng/mL; for inhibition at 10 µM: mean ± SEM, n = 3, read-out: NF-κB Luciferase Activity Inh %
Experimental: NF-κB Luciferase Reporter Vector was purchased from Signosis (Santa Clara, CA, USA) and transfected into HEK-293 cells using FuGENE HD (Promega, Fitchburg, MA, USA) following the manufacturer’s protocol. The transfected cells were incubated in serum-free DMEM for 16 h and then treated with DMSO or indicated compounds. After 3 h, cells were treated with or without 50 ng/mL of Recombinant Human TNFα Protein (R&D systems, Minneapolis, MN, USA) for another 3 h. The protein lysates were analyzed using Steady-Glo® Luciferase Assay System (Promega, Fitchburg, MA, USA) and TECAN Infinite 200 pro (Männedorf, Switzerland).

dTHP−1 cells = assay: Cell viability of dTHP-1 cells with or without LPS; format: cell-based, human; conditions: in % (unit assumed); for Cell viability of dTHP-1 cells, 5 μM, LPS / Cell viability of dTHP-1 cells, 5 μM, without LPS: 5 μM (so in the source)
Experimental: as §1
(§3) Cells were incubated with the WST-1 reagent (Thermo Fisher Scientific, Waltham, MA, USA) at 37 °C for 2 h. The cell viability was determined by spectrophotometer at 450 nm.
as §2

phospho-NF-κB p65 (S536) = assay: Western blot phospho-NF-κB p65 (S536) in dTHP-1 cells; format: cell-based, human; conditions: CAPE 10 µM; LPS-stimulated dTHP-1 cells
Experimental: Cells were lysed in the commercial RIPA Buffer (Thermo Fisher Scientific, Waltham, MA, USA) and then centrifuged at 14,000× g for 20 min. […] Antibodies used in this study were phospho-NF-κB p65 (S468; catalog no. 3039), phospho-NF-κB p65 (S536; catalog no. 3033), phospho-IKKα/β (catalog no. 2697), and IκB (catalog no. 9242) from Cell Signaling Technology (Beverly, MA, USA); GAPDH from ABclonal (catalog no. A10868; Woburn, MA, USA). The labeled signals were determined using an enhanced chemiluminescence system (UVP, Upland, CA, USA). The experiments were performed at least two times in triplicate, providing basically the same results.
The dTHP−1 cells were incubated with DMSO (0.1%), 19 (7.5 µM), or CAPE (10 µM) in medium for 3 h and then stimulated with or without LPS (0.1 µg/mL) for another 30 min. (A) The levels of phospho-NF-κB p65 (S536), phospho-IKKα/β, IκB, and GAPDH were determined by Western blot. The normalized (B) phospho-NF-κB p65 (S536), (C) phospho-IKKα/β, and (D) IκB levels were quantified. All data are expressed as mean ± SEM (n = 3); * p < 0.05 compared with the DMSO + LPS group.

[5] = Cell viability (WST-1), HEK293; format: cell-based; conditions: human, HEK293 cells, mean ± SEM, n = 3
Experimental: as §3

[6] = Cell viability (WST-1), A549; format: cell-based; conditions: human, A549 cells, mean ± SEM, n = 3
Experimental: as §3

Recombinant EGFR kinase = Recombinant EGFR kinase (Homo sapiens, UniProt P00533); assay: Recombinant EGFR kinase activity; format: biochemical; conditions: read-out: Recombinant EGFR Kinase Activity (%inh at 150 nM)
26S proteasome = tested on: 26S proteasome; design: method as in PMID 20420526; conditions: read-out: IC50, inhibition of the activity of the 26S proteasome; cited from earlier work
[7] = 7.5 μM, LPS 100 ng/mL for 24 h, dTHP-1 cells
[8] = LPS 100 ng/mL for 24 h, dTHP-1 cells

Sequence of Recombinant EGFR kinase (P00533 25-1210): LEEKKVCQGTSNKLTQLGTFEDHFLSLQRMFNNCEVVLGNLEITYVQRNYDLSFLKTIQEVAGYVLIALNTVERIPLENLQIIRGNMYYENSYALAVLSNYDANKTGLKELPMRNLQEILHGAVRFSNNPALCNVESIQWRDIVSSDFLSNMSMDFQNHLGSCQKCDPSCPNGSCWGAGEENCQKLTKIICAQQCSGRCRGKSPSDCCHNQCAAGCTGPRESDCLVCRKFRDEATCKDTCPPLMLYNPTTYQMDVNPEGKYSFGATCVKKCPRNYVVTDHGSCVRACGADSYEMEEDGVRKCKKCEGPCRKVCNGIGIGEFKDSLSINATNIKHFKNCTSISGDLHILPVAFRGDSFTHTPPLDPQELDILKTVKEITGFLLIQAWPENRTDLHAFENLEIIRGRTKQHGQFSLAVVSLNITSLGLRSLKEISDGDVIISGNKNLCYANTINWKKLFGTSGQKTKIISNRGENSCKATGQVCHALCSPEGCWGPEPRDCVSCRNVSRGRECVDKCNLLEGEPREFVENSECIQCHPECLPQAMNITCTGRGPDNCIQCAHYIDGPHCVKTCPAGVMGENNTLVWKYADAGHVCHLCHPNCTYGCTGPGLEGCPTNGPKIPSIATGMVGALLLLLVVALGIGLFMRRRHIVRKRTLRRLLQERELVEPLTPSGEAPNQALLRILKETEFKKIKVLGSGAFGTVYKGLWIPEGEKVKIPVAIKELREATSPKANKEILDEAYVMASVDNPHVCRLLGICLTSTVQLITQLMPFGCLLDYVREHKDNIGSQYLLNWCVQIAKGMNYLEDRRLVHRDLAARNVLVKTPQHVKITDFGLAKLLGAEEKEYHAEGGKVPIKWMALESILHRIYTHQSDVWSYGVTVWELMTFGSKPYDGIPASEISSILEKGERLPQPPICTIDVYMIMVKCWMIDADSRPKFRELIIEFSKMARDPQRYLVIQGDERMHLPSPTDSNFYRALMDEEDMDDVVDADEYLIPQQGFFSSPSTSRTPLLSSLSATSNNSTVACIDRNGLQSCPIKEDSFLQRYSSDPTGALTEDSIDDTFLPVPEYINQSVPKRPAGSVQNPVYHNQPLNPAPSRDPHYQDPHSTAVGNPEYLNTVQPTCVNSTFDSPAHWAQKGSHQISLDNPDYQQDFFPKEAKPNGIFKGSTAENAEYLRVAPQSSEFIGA

Compound: C=C1C(=O)O[C@@H]2C[C@@H](C)[C@@H]3C=CC(=O)[C@@]3(C)[C@@H](O)[C@H]12 [helenalin]
IC50 (NF-κB p65 subunit): 5 µM

Compound: Cc1ccc2nc(NCCN)c3ncc(C)n3c2c1 [BMS-345541]
IC50 (IL-1β production): ~5 µM | IC50 (IKKα): 4 µM | inhibition of TNFα in mice after administration of LPS (TNFα): effective in the inhibition of TNFα in mice | IC50 (IKKβ): 300 nM | IC50 (TNFα production [1]): ~5 µM

Compound: CC(C)(C)c1ccc(Nc2ncnc3ccc(NC(=S)NCc4ccccc4)cc23)cc1 [C]
IC50 (NF-κB [2]): 5.5 µM | IC50 (EGFR kinase): > 150 nM

Compound: cacospongiolide B
IC50 (IKKα/β): 260 nM

IC50 (TNFα production [3]): 11.4 ± 0.21 µM | IC50 (IL-6 production): 1100 ± 360 nM
Compound: O=C(/C=C/c1ccc(O)c(O)c1)OCCc1ccccc1 [CAPE, caffeic acid phenethyl ester, reference compound]
inhibition at 10 µM (NF-κB [4]): 72.8% | Cell viability of dTHP-1 cells, 10 μM, LPS (dTHP−1 cells; CAPE 10 μM, LPS 100 ng/mL for 24 h): 52.2 ± 9.7 | Cell viability of dTHP-1 cells, 10 μM, without LPS (dTHP−1 cells; CAPE 10 μM, no LPS): 97.8 ± 0.41 | Phosphorylation of p65 at Ser536 (phospho-NF-κB p65 (S536)): slight reduction in the p65 phosphorylation

IC50 (NF-κB [4]): 790 nM
Compound: S=C(NCc1ccccc1)Nc1ccc2ncnc(Nc3cccc(Cl)c3)c2c1 [A, reference compound]
IC50 (NF-κB [2]): 3.7 µM | inhibition at 10 µM (NF-κB [4]): 94.6 ± 1.5% | viability at 10 µM [5]: 72.4 ± 3.9% | viability at 10 µM [6]: 81.7 ± 1.2%

IC50 (TNFα production [3]): 12.3 ± 1 µM | inhibition at 0.15 µM (Recombinant EGFR kinase): 36.5% | IC50 (IL-6 production): 720 ± 170 nM | IC50 (NF-κB [4]): > 10000 nM | melting point: 219.1 to 220.2 °C
Compound: S=C(Nc1ccc2ncnc(Nc3cccc(Cl)c3)c2c1)NC1CC1 [Compound 17, 1-(4-((3-Chlorophenyl)amino)quinazolin-6-yl)-3-cyclopropylthiourea]
inhibition at 7.5 µM (TNFα production [3]): 19 ± 8% | inhibition at 15 µM (TNFα production [3]): 62 ± 4.2% | inhibition at 7.5 µM (IL-6 production; [7]): 86 ± 2.3% | inhibition at 15 µM (IL-6 production; [8]): 95.8 ± 0.33% | inhibition at 10 µM (NF-κB [4]): 47 ± 5.3% | viability at 10 µM [5]: 103 ± 8.4% | Cell viability of dTHP-1 cells, 5 μM, LPS (dTHP−1 cells; LPS 100 ng/mL for 24 h): 62.0 ± 3.4 | Cell viability of dTHP-1 cells, 5 μM, without LPS (dTHP−1 cells; no LPS): 84.5 ± 4.8 | Cell viability of dTHP-1 cells, 7.5 μM, without LPS (dTHP−1 cells; 7.5 μM, no LPS): 94.3 ± 1.9 | viability at 10 µM [6]: 102.6 ± 0.2%

IC50 (TNFα production [3]): 4.4 ± 0.85 µM | inhibition at 0.15 µM (Recombinant EGFR kinase): 68% | IC50 (IL-6 production): 360 ± 70 nM | IC50 (NF-κB [4]): 1600 nM | melting point: 178 to 180 °C
Compound: Fc1ccc(CNC(=S)Nc2ccc3ncnc(Nc4cccc(Cl)c4)c3c2)c(F)c1 [Compound 6, 1-(4-((3-chlorophenyl)amino)quinazolin-6-yl)-3-(2,4-difluorobenzyl)thiourea]
inhibition at 7.5 µM (TNFα production [3]): 61.1 ± 5.8% | inhibition at 15 µM (TNFα production [3]): 76.6 ± 3.8% | IL-6 Production Inh % (7.5 μM) (IL-6 production; [7]): almost complete blockage | inhibition at 7.5 µM (IL-6 production; [7]): 97.6 ± 0.6% | inhibition at 15 µM (IL-6 production; [8]): 98.2 ± 1.3% | inhibition at 10 µM (NF-κB [4]): 78.4 ± 2.7% | viability at 10 µM [5]: 85.5 ± 6.4% | Cell viability of dTHP-1 cells, 5 μM, LPS (dTHP−1 cells; LPS 100 ng/mL for 24 h): 5.0 ± 0.35 | Cell viability of dTHP-1 cells, 5 μM, without LPS (dTHP−1 cells; no LPS): 43.6 ± 9.0 | Cell viability of dTHP-1 cells, 7.5 μM, without LPS (dTHP−1 cells; 7.5 μM, no LPS): 62.0 ± 14.5 | viability at 10 µM [6]: 75.5 ± 2.9%

IC50 (TNFα production [3]): 5.1 ± 0.43 µM | inhibition at 0.15 µM (Recombinant EGFR kinase): 1.5% | IC50 (IL-6 production): 940 ± 110 nM | IC50 (NF-κB [4]): 2000 nM | melting point: 177.5 to 179.4 °C
Compound: CC(C)(C)NC(=S)Nc1ccc2ncnc(Nc3cccc(Cl)c3)c2c1 [Compound 20, 1-(tert-Butyl)-3-(4-((3-chlorophenyl)amino)quinazolin-6-yl)thiourea]
inhibition at 7.5 µM (TNFα production [3]): 57.4 ± 7.2% | inhibition at 15 µM (TNFα production [3]): 89.9 ± 0.88% | inhibition at 7.5 µM (IL-6 production; [7]): 91.8 ± 3.5% | inhibition at 15 µM (IL-6 production; [8]): 98.7 ± 1.2% | inhibition at 10 µM (NF-κB [4]): 75.7 ± 3.1% | viability at 10 µM [5]: 99.7 ± 8% | Cell viability of dTHP-1 cells, 5 μM, LPS (dTHP−1 cells; LPS 100 ng/mL for 24 h): 12.5 ± 0.23 | Cell viability of dTHP-1 cells, 5 μM, without LPS (dTHP−1 cells; no LPS): 42.5 ± 10.6 | Cell viability of dTHP-1 cells, 7.5 μM, LPS (dTHP−1 cells; 7.5 μM, LPS 100 ng/mL for 24 h): 32.5 ± 0.89 | Cell viability of dTHP-1 cells, 7.5 μM, without LPS (dTHP−1 cells; 7.5 μM, no LPS): 78.0 ± 0.09 | viability at 10 µM [6]: 98.1 ± 3.1%

Compound: S=C(NCc1ccccc1)Nc1ccc2ncnc(Nc3ccc(Br)cc3)c2c1 [B]
IC50 (NF-κB [2]): 3.8 µM | IC50 (EGFR kinase): > 150 nM

Compound: C[C@@]12OC(=O)[C@]1([C@@H](O)[C@@H]1C=CCCC1)NC(=O)[C@@H]2CCCl [salinosporamide A]
IC50 (26S proteasome): 1.3 nM
